Test results from PubChem BioAssay AID328 (DTP/NCI, 2004).
Several values for one entry are separate records, joined by “and”; a condition that tells them apart may be missing. Equal values may be shown once. Toxic doses and inconclusive results are not listed.

Test system: BDF1 mice, P388 leukemia ip, median survival T/C
Assay: NCI In Vivo Anticancer Drug Screen. Data for tumor model P388 Leukemia (intraperitoneal) in B6D2F1 (BDF1) mice
Settings: endpoint: median survival time, higher = longer survival
In short: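 Steps: implant the tumour, treat one group with compound and another with vehicle, record survival, then divide treated by control.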

[1] = dose: 25.0 mg/kg/injection, schedule: Q04DX003 (ip), vehicle: saline with Tween-80
[2] = dose: 50.0 mg/kg/injection, schedule: Q01DX009 (ip), vehicle: Klucel (hydroxypropylcellulose) (HPC)
[3] = dose: 50.0 mg/kg/injection, schedule: Q04DX003 (ip), vehicle: Klucel (hydroxypropylcellulose) (HPC)
[4] = dose: 100.0 mg/kg/injection, schedule: Q01DX009 (ip), vehicle: Klucel (hydroxypropylcellulose) (HPC)
[5] = dose: 100.0 mg/kg/injection, schedule: Q04DX003 (ip), vehicle: Klucel (hydroxypropylcellulose) (HPC)
[6] = dose: 200.0 mg/kg/injection, schedule: Q01DX009 (ip), vehicle: Klucel (hydroxypropylcellulose) (HPC)
[7] = dose: 200.0 mg/kg/injection, schedule: Q04DX003 (ip), vehicle: Klucel (hydroxypropylcellulose) (HPC)
[8] = dose: 50.0 mg/kg/injection, schedule: Q01DX009 (ip), vehicle: saline with Tween-80
[9] = dose: 100.0 mg/kg/injection, schedule: Q01DX009 (ip), vehicle: saline with Tween-80
[10] = dose: 100.0 mg/kg/injection, schedule: Q04DX003 (ip), vehicle: saline with Tween-80
[11] = dose: 200.0 mg/kg/injection, schedule: Q01DX009 (ip), vehicle: saline with Tween-80
[12] = dose: 400.0 mg/kg/injection, schedule: Q01DX009 (ip), vehicle: saline with Tween-80
[13] = dose: 400.0 mg/kg/injection, schedule: Q04DX003 (ip), vehicle: saline with Tween-80
[14] = dose: 12.5 mg/kg/injection, schedule: Q01DX009 (ip), vehicle: saline with Tween-80
[15] = dose: 25.0 mg/kg/injection, schedule: Q01DX009 (ip), vehicle: saline with Tween-80
[16] = dose: 50.0 mg/kg/injection, schedule: Q04DX003 (ip), vehicle: saline with Tween-80
[17] = dose: 100.0 mg/kg/injection, schedule: Q04DX003 (ip), vehicle: saline
[18] = dose: 6.25 mg/kg/injection, schedule: Q01DX009 (ip), vehicle: saline with Tween-80

C=C1CCC2(C)C(O)CC3(C)C(CCC4C5(C)CCC(OC(C)=O)C(C)(C)C5CCC43C)C2C1C (configuration not stated)
T/C (dose: 1.0 mg/kg/injection, schedule: Q01DX009 (ip), vehicle: saline + alcohol): 97 % of control
T/C (dose: 2.0 mg/kg/injection, schedule: Q01DX009 (ip), vehicle: saline + alcohol): 106 % of control
T/C (dose: 4.0 mg/kg/injection, schedule: Q01DX009 (ip), vehicle: saline + alcohol): 92 % of control

OCCN1CCN(CC/C=C2\c3ccccc3COc3ccc(Cl)cc32)CC1
T/C (dose: 6.25 mg/kg/injection, schedule: Q04DX003 (ip), vehicle: saline): 107 % of control
T/C (dose: 25.0 mg/kg/injection, schedule: Q04DX003 (ip), vehicle: saline): 109 % of control

CCCC(=O)OCC1OC(n2cnc3c(=S)nc(N)[nH]c32)C(OC(=O)CCC)C1OC(=O)CCC (configuration not stated)
T/C (dose: 16.5 mg/kg/injection, schedule: Q04DX003 (ip), vehicle: saline with Tween-80): 177 % of control
T/C [1]: 154 % of control
T/C (dose: 37.5 mg/kg/injection, schedule: Q04DX003 (ip), vehicle: saline with Tween-80): 161 % of control

COc1cccc(CC(=O)C(=O)O)c1
T/C [2]: 95 % of control
T/C [3]: 100 % of control
T/C [4]: 104 % of control
T/C [5]: 115 % of control
T/C [6]: 90 % of control
T/C [7]: 110 % of control

N#CCCC1(CCC#N)c2ccccc2-c2ccccc21
T/C [4]: 92 % of control
T/C [5]: 96 % of control
T/C [6]: 92 % of control
T/C [7]: 112 % of control
T/C (dose: 400.0 mg/kg/injection, schedule: Q01DX009 (ip), vehicle: Klucel (hydroxypropylcellulose) (HPC)): 92 % of control
T/C (dose: 400.0 mg/kg/injection, schedule: Q04DX003 (ip), vehicle: Klucel (hydroxypropylcellulose) (HPC)): 92 % of control

CCCCSCc1nc2nc(Cl)c(Cl)nc2[nH]1
T/C [8]: 110 % of control
T/C [9]: 108 % of control
T/C [10]: 109 % of control
T/C [11]: 91 % of control
T/C (dose: 200.0 mg/kg/injection, schedule: Q04DX003 (ip), vehicle: saline with Tween-80): 95 % of control
T/C [12]: 94 % of control
T/C [13]: 95 % of control

ClCC[N+]12CC[N+](CCCl)(CC1)C2
T/C [14]: 103 % of control
T/C [15]: 118 % of control and 116 % of control
T/C [1]: 108 % of control
T/C [16]: 93 % of control and 108 % of control
T/C (dose: 50.0 mg/kg/injection, schedule: Q04DX003 (ip), vehicle: saline): 103 % of control
T/C [9]: 150 % of control and 206 % of control and 168 % of control
T/C [10]: 171 % of control
T/C [17]: 122 % of control
T/C (dose: 200.0 mg/kg/injection, schedule: Q04DX003 (ip), vehicle: saline): 165 % of control
T/C (dose: 264.0 mg/kg/injection, schedule: Q04DX003 (ip), vehicle: saline with Tween-80): 200 % of control
T/C [12]: 112 % of control
T/C (dose: 400.0 mg/kg/injection, schedule: Q01DX009 (ip), vehicle: saline): 178 % of control
T/C [13]: 96 % of control
T/C (dose: 400.0 mg/kg/injection, schedule: Q04DX003 (ip), vehicle: saline): 244 % of control
T/C (dose: 600.0 mg/kg/injection, schedule: Q04DX003 (ip), vehicle: saline with Tween-80): 95 % of control

O=C(O)C(O)C(=O)O
T/C [17]: 95 % of control

Cc1ccc(C(=O)CO)cc1
T/C [8]: 98 % of control
T/C [9]: 102 % of control
T/C [11]: 98 % of control

OCC1(CO)COC(c2ccccc2)OC1
T/C (dose: 25.0 mg/kg/injection, schedule: Q04DX003 (ip), vehicle: Klucel (hydroxypropylcellulose) (HPC)): 95 % of control
T/C [3]: 100 % of control
T/C [5]: 100 % of control

Nc1cc(=O)n(Cc2ccco2)c(=S)[nH]1
T/C (dose: 50.0 mg/kg/injection, schedule: Q01DX005 (ip), vehicle: saline with Tween-80): 93 % of control
T/C (dose: 100.0 mg/kg/injection, schedule: Q01DX005 (ip), vehicle: saline with Tween-80): 102 % of control
T/C (dose: 200.0 mg/kg/injection, schedule: Q01DX005 (ip), vehicle: saline with Tween-80): 100 % of control

CNNCc1ccc(C(=O)NC(C)C)cc1
T/C (dose: 37.5 mg/kg/injection, schedule: Q01DX010 (ip), vehicle: saline): 100 % of control
T/C (dose: 100.0 mg/kg/injection, schedule: Q01DX009 (ip), vehicle: saline): 112 % of control and 116 % of control
T/C (dose: 120.0 mg/kg/injection, schedule: Q01DX009 (ip), vehicle: saline): 106 % of control
T/C (dose: 125.0 mg/kg/injection, schedule: Q01DX009 (ip), vehicle: saline): 123 % of control
T/C (dose: 225.0 mg/kg/injection, schedule: Q01DX009 (ip), vehicle: saline): 180 % of control
T/C (dose: 250.0 mg/kg/injection, schedule: Q01DX009 (ip), vehicle: saline): 161 % of control
T/C (dose: 400.0 mg/kg/injection, schedule: Q01DX001 (ip), vehicle: saline): 109 % of control

CCOC(=O)C1=C(O)c2c(sc(C)c2-c2ccccc2)N(S(=O)(=O)c2ccc(C)cc2)CC1
T/C [9]: 100 % of control
T/C [11]: 109 % of control
T/C [12]: 95 % of control

O=C1C2CCC(C2)[CH]1[Hg][Cl] (configuration not stated)
T/C (dose: 1.56 mg/kg/injection, schedule: Q01DX009 (ip), vehicle: saline with Tween-80): 102 % of control
T/C (dose: 3.13 mg/kg/injection, schedule: Q01DX009 (ip), vehicle: saline with Tween-80): 103 % of control
T/C [18]: 118 % of control

CC1=CC(C(O)CC(C)C)C(C)(Cc2ccc(C)cn2)NC1c1ccccc1 (configuration not stated)
T/C [18]: 107 % of control
T/C [14]: 102 % of control
T/C [15]: 103 % of control

OC1(C2(O)CCCC2)CCCC1
T/C [9]: 109 % of control
T/C [11]: 95 % of control
T/C [12]: 100 % of control

CCOC(=O)c1[nH]cnc1/N=N/N(C)CCO
T/C (dose: 14.0 mg/kg/injection, schedule: Q01DX009 (ip), vehicle: saline): 104 % of control
T/C (dose: 21.0 mg/kg/injection, schedule: Q01DX009 (ip), vehicle: saline): 100 % of control
T/C (dose: 66.0 mg/kg/injection, schedule: Q01DX009 (ip), vehicle: saline): 115 % of control
T/C (dose: 264.0 mg/kg/injection, schedule: Q01DX009 (ip), vehicle: saline with Tween-80): 113 % of control
T/C (dose: 600.0 mg/kg/injection, schedule: Q01DX009 (ip), vehicle: saline with Tween-80): 118 % of control
T/C (dose: 600.0 mg/kg/injection, schedule: Q01DX009 (ip), vehicle: saline): 163 % of control

NC(CCCC(=O)O)P(=O)(O)O (configuration not stated)
T/C [2]: 112 % of control
T/C [4]: 110 % of control
T/C [6]: 113 % of control

c1ccc(-c2oc3cc4c(cc3c2-c2ccc(OCCN3CCCC3)cc2)CCC4)cc1
T/C [10]: 95 % of control

CC1=CC23C(COC(=O)C24CO4)C(C(=O)O)=CC3C1C (configuration not stated)
T/C (dose: 0.31 mg/kg/injection, schedule: Q01DX009 (ip), vehicle: Klucel (hydroxypropylcellulose) (HPC)): 105 % of control
T/C (dose: 0.63 mg/kg/injection, schedule: Q01DX009 (ip), vehicle: Klucel (hydroxypropylcellulose) (HPC)): 113 % of control
T/C (dose: 1.25 mg/kg/injection, schedule: Q01DX009 (ip), vehicle: Klucel (hydroxypropylcellulose) (HPC)): 102 % of control and 117 % of control

O=[N+]([O-])c1cccc2c[n+](Cc3ccccc3)ccc12
T/C [14]: 117 % of control

COc1cc(C=Nc2cc(Cl)ccc2-n2ccnc2C)ccc1N(CCCl)CCCl
T/C (dose: 21.0 mg/kg/injection, schedule: Q04DX003 (ip), vehicle: saline with Tween-80): 170 % of control
T/C (dose: 33.0 mg/kg/injection, schedule: Q04DX003 (ip), vehicle: saline with Tween-80): 235 % of control
T/C [16]: 170 % of control
T/C (dose: 75.0 mg/kg/injection, schedule: Q04DX003 (ip), vehicle: saline with Tween-80): 178 % of control

O=C(O)CNOCN1C(=O)c2ccccc2C1=O
T/C (dose: 100.0 mg/kg/injection, schedule: Q01DX001 (ip), vehicle: Klucel (hydroxypropylcellulose) (HPC)): 104 % of control
T/C (dose: 200.0 mg/kg/injection, schedule: Q01DX001 (ip), vehicle: Klucel (hydroxypropylcellulose) (HPC)): 91 % of control
T/C (dose: 400.0 mg/kg/injection, schedule: Q01DX001 (ip), vehicle: Klucel (hydroxypropylcellulose) (HPC)): 95 % of control
